Experimental data published in ChEMBL document CHEMBL1629445, “Synthesis and evaluation of azetidinone analogues of combretastatin A-4 as tubulin targeting agents” (J Med Chem, 2010).

Key:
MCF7 = assay: cells; conditions: Homo sapiens, MCF7, 72 h
[1] = Growth inhibition of human NCI60 cells; format: functional
MDA-MB-231 = assay: Antiproliferative activity against human MDA-MB-231 cells after 72 hrs by MTT assay; format: functional, cell-based; conditions: MDA-MB-231, 72 h
[2] = Cytotoxicity against in CD1 mouse mammary epithelial cells after 72 hrs by alamar blue dye assay; format: cell-based; conditions: CD1, Epithelial cell

| IC50 (MCF7) | Compound | GI50 [1] | IC50 (MDA-MB-231) | IC50 [2] |
| --- | --- | --- | --- | --- |
| 37800 nM | COc1ccc([C@H]2C(=O)N(c3ccccc3)[C@@H]2c2cc(OC)c(OC)c(OC)c2)cc1 |  |  |  |
| 326 nM | COc1ccc([C@@H]2[C@@H](c3cccc(OC)c3)C(=O)N2c2cc(OC)c(OC)c(OC)c2)cc1 |  |  |  |
| 182 nM | COc1ccc([C@H]2C(=O)N(c3cc(OC)c(OC)c(OC)c3)[C@@H]2c2ccc(OC)cc2)cc1 | 210 nM |  |  |
| 223 nM | COc1ccc([C@@H]2[C@@H](c3ccc(OC)c(OC)c3)C(=O)N2c2cc(OC)c(OC)c(OC)c2)cc1 |  |  |  |
| 305 nM | COc1ccc([C@@H]2[C@@H](c3ccc(Cl)cc3)C(=O)N2c2cc(OC)c(OC)c(OC)c2)cc1 |  |  |  |
| 7990 nM | COc1ccc([C@@H]2[C@@H](c3ccc(OCc4ccccc4)cc3)C(=O)N2c2cc(OC)c(OC)c(OC)c2)cc1 |  |  |  |
| 466 nM | COc1ccc([C@@H]2[C@@H](c3ccccc3)C(=O)N2c2cc(OC)c(OC)c(OC)c2)cc1[N+](=O)[O-] |  |  |  |
| 486 nM | COc1ccc([C@@H]2[C@@H](c3ccc([N+](=O)[O-])cc3)C(=O)N2c2cc(OC)c(OC)c(OC)c2)cc1 |  |  |  |
| 1360 nM | COc1ccc([C@@H]2[C@@H](c3ccc(F)cc3)C(=O)N2c2cc(OC)c(OC)c(OC)c2)cc1[N+](=O)[O-] |  |  |  |
| 43100 nM | COc1ccc([C@@H]2[C@@H](c3cc(OC)c(OC)c(OC)c3)C(=O)N2c2ccccc2)cc1 |  |  |  |
| 34.4 nM | COc1ccc([C@@H]2[C@@H](c3ccccc3)C(=O)N2c2cc(OC)c(OC)c(OC)c2)cc1 |  | 78.2 nM |  |
| 43100 nM | COc1ccc(N2C(=O)[C@H](c3ccccc3)[C@H]2c2cc(OC)c(OC)c(OC)c2)cc1 |  |  |  |
| 65.7 nM | COc1ccc([C@@H]2[C@@H](c3ccc(F)cc3)C(=O)N2c2cc(OC)c(OC)c(OC)c2)cc1O |  | 107 nM |  |
| 68.9 nM | COc1ccc([C@@H]2[C@@H](c3cccc(O)c3)C(=O)N2c2cc(OC)c(OC)c(OC)c2)cc1 |  |  |  |
| 700 nM | COc1ccc([C@@H]2[C@@H](c3ccccc3OC)C(=O)N2c2cc(OC)c(OC)c(OC)c2)cc1 |  |  |  |
| 7120 nM | COc1ccc([C@@H]2[C@@H](c3cc(OC)c(OC)c(OC)c3)C(=O)N2c2cc(OC)c(OC)c(OC)c2)cc1 |  |  |  |
| 448 nM | COc1ccc([C@@H]2[C@@H](c3ccc(SC)cc3)C(=O)N2c2cc(OC)c(OC)c(OC)c2)cc1 |  |  |  |
| 315 nM | COc1ccc([C@@H]2[C@@H](c3ccc(C)cc3)C(=O)N2c2cc(OC)c(OC)c(OC)c2)cc1 |  |  |  |
| 420 nM | COc1ccc([C@@H]2[C@@H](c3ccc(Br)cc3)C(=O)N2c2cc(OC)c(OC)c(OC)c2)cc1 |  |  |  |
| 3360 nM | COc1ccc([C@@H]2[C@@H](c3ccc(Cl)c(Cl)c3)C(=O)N2c2cc(OC)c(OC)c(OC)c2)cc1 |  |  |  |
| 314 nM | COc1ccc([C@@H]2[C@@H](c3ccc(F)c(F)c3)C(=O)N2c2cc(OC)c(OC)c(OC)c2)cc1 |  |  |  |
| 1660 nM | COc1ccc([C@@H]2[C@@H](c3ccc(C(F)(F)F)cc3)C(=O)N2c2cc(OC)c(OC)c(OC)c2)cc1 |  |  |  |
| 39.5 nM | COc1ccc([C@@H]2[C@@H](c3ccc(O)cc3)C(=O)N2c2cc(OC)c(OC)c(OC)c2)cc1N |  | 1680 nM |  |
| 50.8 nM | COc1ccc([C@@H]2[C@@H](c3ccc(N)cc3)C(=O)N2c2cc(OC)c(OC)c(OC)c2)cc1 |  | 224 nM |  |
| 65.3 nM | COc1ccc([C@@H]2[C@@H](c3ccccc3)C(=O)N2c2cc(OC)c(OC)c(OC)c2)cc1N |  | 429 nM |  |
| 4.5 nM | COc1ccc([C@@H]2[C@@H](c3ccc(N)cc3)C(=O)N2c2cc(OC)c(OC)c(OC)c2)cc1O |  |  |  |
| 720 nM | COc1ccc([C@@H]2[C@@H](c3ccccc3)C(=S)N2c2cc(OC)c(OC)c(OC)c2)cc1 |  |  |  |
| 24600 nM | COc1ccc([C@@H](Nc2cc(OC)c(OC)c(OC)c2)[C@@H](CO)c2ccccc2)cc1O |  |  |  |
| > 100000 nM | COC(=O)C(c1ccccc1)[C@H](Nc1cc(OC)c(OC)c(OC)c1)c1ccc(OC)c(O)c1 (some centres not stated) |  |  |  |

| Compound | IC50 (MCF7) | GI50 [1] | IC50 (MDA-MB-231) | IC50 [2] |
| --- | --- | --- | --- | --- |
| COc1ccc([C@@H]2[C@@H](c3ccccc3)C(=O)N2c2cc(OC)c(OC)c(OC)c2)cc1O | 9.6 nM | 24 nM | 28.8 nM | > 10 µM |
| COc1ccc([C@@H]2[C@@H](c3ccc(O)cc3)C(=O)N2c2cc(OC)c(OC)c(OC)c2)cc1 | 59.1 nM |  | 158 nM |  |
| COc1ccc([C@@H]2[C@@H](c3ccc(F)cc3)C(=O)N2c2cc(OC)c(OC)c(OC)c2)cc1 | 42.3 nM |  | 228 nM |  |
| COc1ccc([C@@H]2[C@@H](c3ccc(O)cc3)C(=O)N2c2cc(OC)c(OC)c(OC)c2)cc1O | 0.8 nM |  | 176 nM | > 10 µM |
| COc1ccc([C@@H]2[C@@H](c3ccc(F)cc3)C(=O)N2c2cc(OC)c(OC)c(OC)c2)cc1N | 55.3 nM |  | 80.8 nM |  |
| COc1ccc([C@@H]2[C@@H](c3ccc(N)cc3)C(=O)N2c2cc(OC)c(OC)c(OC)c2)cc1N | 30.9 nM |  |  |  |
| COc1ccc(/C=C\c2cc(OC)c(OC)c(OC)c2)cc1O [COMBRETASTATIN A4] | 5.2 nM |  | 43 nM | > 10 µM |
